Results: patent US9523100B2, “Pesticidal compositions and related methods” (DOW AGROSCIENCES LLC, priority 2013, dated 2016)
Where two headings read alike, the source gives them in different places.

Key:
[1] = test system: Green Peach Aphid (GPA) (Myzus persicae) (MYZUPE); test: Bioassay for Green Peach Aphid (GPA), foliar spray on cabbage seedlings; type: in vivo; details: 72 h, read-out: GPA 200 ppm, % Control (or Mortality) rating
Procedure, shortened: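 Cabbage seedlings infested with 20-50 GPA (wingless adults and nymphs) one day before spraying to runoff with 200 ppm compound; four pots per treatment. Live aphids counted after three days at ~25° C; percent control by Abbott's correction against solvent-sprayed plants.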

[2] = test system: Sweetpotato Whitefly-Crawler (WF) (Bemisia tabaci) (BEMITA); test: Insecticidal test for Sweetpotato Whitefly-Crawler (WF) in foliar spray assay on cotton plants; type: in vivo; details: 216 h, read-out: WF 200 ppm, % Control (or Mortality) rating
Procedure, shortened: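 Cotton plants carrying 200–400 whitefly eggs sprayed to run-off on both leaf surfaces at 200 ppm (acetone/0.025% Tween 20), four plants per treatment. After 9 days at about 25 °C, live 3rd–4th instar nymphs counted; Abbott-corrected percent control versus solvent check.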

[3] = 200 ppm foliar spray on cabbage seedlings, graded after three days, Abbott corrected % control
[4] = 200 ppm foliar spray on cotton plants, graded after 9 days, Abbott corrected % control

Compound | mortality at 200 ppm [1, 3] | mortality at 200 ppm [2, 4] | mortality at 200 ppm ([1]; foliar) | mortality at 200 ppm ([2]; foliar)
CCN(C(=O)CCCC1CN(CC2CC2(F)F)C1=O)c1cn(-c2cccnc2)nc1Cl (centres unmarked) [Compound F104, N-(3-Chloro-1-(pyridin-3-yl)-1H-pyrazol-4-yl)-4-(1-((2,2-difluorocyclopropyl)methyl)-2-oxoazetidin-3-yl)-N-ethylbutanamide] | 80 to 100% | 80 to 100% |  | 
CCN(C(=O)CCCC1CNC1=O)c1cn(-c2cccnc2)nc1Cl (centres unmarked) [Compound F58] | 80 to 100% | 80 to 100% |  | 
CCN1CC(CC(=O)N(CC)c2cn(-c3cccnc3)nc2Cl)C1=O (centres unmarked) [Compound F84, N-(3-Chloro-1-(pyridin-3-yl)-1H-pyrazol-4-yl)-N-ethyl-2-(1-ethyl-2-oxoazetidin-3-yl)acetamide] | 80 to 100% | 80 to 100% |  | 
CCN(C(=O)C(C)OC(C)=O)c1cn(-c2cccnc2)nc1Cl (centres unmarked) [Compound C12, 1-((3-chloro-1-(pyridin-3-yl)-1H-pyrazol-4-yl)(ethyl)amino)-1-oxopropan-2-yl acetate] | 80 to 100% | 80 to 100% |  | 
CCN(C(=O)CC1CCN(CCC2CC2(F)F)C1=O)c1cn(-c2cccnc2)nc1Cl (centres unmarked) [FA64, N-(3-Chloro-1-(pyridin-3-yl)-1H-pyrazol-4-yl)-2-(1-(2-(2,2-difluorocyclopropyl)ethyl)-2-oxopyrrolidin-3-yl)-N-ethylacetamide] | 80 to 100% | 80 to 100% |  | 
CN(C(=O)CCN1CCCCC1=O)c1cn(-c2cccnc2)nc1Cl [Compound F49, N-(3-Chloro-1-(pyridin-3-yl)-1H-pyrazol-4-yl)-N-methyl-3-(2-oxopiperidin-1-yl)propanamide] | 80 to 100% | 80 to 100% |  | 
CCN(C(=O)CC1CNC1=O)c1cn(-c2cccnc2)nc1Cl (centres unmarked) [Compound F71, N-(3-chloro-1-(pyridin-3-yl)-1H-pyrazol-4-yl)-N-ethyl-2-(2-oxoazetidin-3-yl)acetamide] | 80 to 100% | 80 to 100% |  | 
CCN(C(=O)CC/C(=N\OCC1CC1(F)F)c1cccs1)c1cn(-c2cccnc2)nc1Cl (centres unmarked) [FA38, (E)-N-(3-Chloro-1-(pyridin-3-yl)-1H-pyrazol-4-yl)-4-(((2,2-difluorocyclopropyl)methoxy)imino)-N-ethyl-4-(thiophen-2-yl)butanamide] | 0 to 80% | 0 to 80% |  | 
CCN(C(=O)CCNC(=O)OC(C)(C)C)c1cn(-c2cccnc2)nc1Cl [Compound F19, tert-Butyl (3-((3-chloro-1-(pyridin-3-yl)-1H-pyrazol-4-yl)(ethyl)amino)-3-oxopropyl)carbamate] | 80 to 100% | 80 to 100% |  | 
CC(CCC(=O)N(C)c1cn(-c2cccnc2)nc1Cl)=NOC(C)C (mixture of isomers) [Compound F130, (E/Z)-N-(3-Chloro-1-(pyridin-3-yl)-1H-pyrazol-4-yl)-4-(isopropoxyimino)-N-methylpentanamide] | 80 to 100% | 80 to 100% |  | 
CCN(C(=O)CCN(CC(F)F)C(=O)C1CC1(F)F)c1cn(-c2cccnc2)nc1Cl (centres unmarked) [Compound F34, N-(3-((3-chloro-1-(pyridin-3-yl)-1H-pyrazol-4-yl)(ethyl)amino)-3-oxopropyl)-N-(2,2-difluoroethyl)-2,2-difluorocyclopropanecarboxamide] | 0 to 80% | 80 to 100% |  | 
CCN(C(=O)CCC(=O)N(C)OC)c1cn(-c2cccnc2)nc1Cl [Compound F78, N1-(3-Chloro-1-(pyridin-3-yl)-1H-pyrazol-4-yl)-N1-ethyl-N4-methoxy-N4-methylsuccinamide] | 80 to 100% | 80 to 100% |  | 
CN(C(=O)CN1CCOC1=O)c1cn(-c2cccnc2)nc1Cl [Compound F111, N-(3-Chloro-1-(pyridin-3-yl)-1H-pyrazol-4-yl)-N-methyl-2-(2-oxooxazolidin-3-yl)acetamide] | 80 to 100% | 80 to 100% |  | 
CCN(C(=O)C(C)N(C)C(=O)CC(F)(F)F)c1cn(-c2cccnc2)nc1Cl (centres unmarked) [Compound F66, N-(1-((3-Chloro-1-(pyridin-3-yl)-1H-pyrazol-4-yl)(ethyl)amino)-1-oxopropan-2-yl)-3,3,3-trifluoro-N-methylpropanamide] | 80 to 100% | 80 to 100% |  | 
CCN(C(=O)CCNC(=O)CC(C)C(F)(F)F)c1cn(-c2cccnc2)nc1Cl (centres unmarked) [Compound F28, N-(3-((3-Chloro-1-(pyridin-3-yl)-1H-pyrazol-4-yl)(ethyl)amino)-3-oxopropyl)-4,4,4-trifluoro-3-methylbutanamide] | 80 to 100% | 80 to 100% |  | 
CCSC(=O)N(C)C(C)C(=O)N(CC)c1cn(-c2cccnc2)nc1Cl (centres unmarked) [Compound F79, S-Ethyl (1-((3-chloro-1-(pyridin-3-yl)-1H-pyrazol-4-yl)(ethyl)amino)-1-oxopropan-2-yl)(methyl) carbamothioate] | 0 to 80% | 0 to 80% |  | 

Compound | mortality at 200 ppm [1, 3] | mortality at 200 ppm [2, 4] | mortality at 200 ppm ([1]; foliar) | mortality at 200 ppm ([2]; foliar)
CCN(C(=O)CCC1CCNC1=O)c1cn(-c2cccnc2)nc1Cl (centres unmarked) [Compound F131, N-(3-chloro-1-(pyridin-3-yl)-1H-pyrazol-4-yl)-N-ethyl-3-(2-oxopyrrolidin-3-yl)propanamide] | 80 to 100% | 80 to 100% |  | 
CCN(C(=O)C1CCCN(C(=O)C(F)(F)F)C1)c1cn(-c2cccnc2)nc1Cl (centres unmarked) [FA41, N-(3-Chloro-1-(pyridin-3-yl)-1H-pyrazol-4-yl)-N-ethyl-1-(2,2,2-trifluoroacetyl)piperidine-3-carboxamide] | 80 to 100% | 0 to 80% |  | 
CCN(C(=O)CCC1CN(C)C1=O)c1cn(-c2cccnc2)nc1Cl (centres unmarked) [Compound F119, N-(3-Chloro-1-(pyridin-3-yl)-1H-pyrazol-4-yl)-N-ethyl-3-(1-methyl-2-oxoazetidin-3-yl)propanamide] | 80 to 100% | 80 to 100% |  | 
CCN(C(=O)CC/C(C)=N/OCCCCF)c1cn(-c2cccnc2)nc1Cl [FA20, (E/Z)-N-(3-chloro-1-(pyridin-3-yl)-1H-pyrazol-4-yl)-N-ethyl-4-((4-fluorobutoxy)imino)pentanamide] | 80 to 100% | 80 to 100% |  | 
CCOC(=O)N(C)CCC(=O)N(CC)c1cn(-c2cccnc2)nc1Cl [Compound F42, Ethyl (3-((3-chloro-1-(pyridin-3-yl)-1H-pyrazol-4-yl)(ethyl)amino)-3-oxopropyl)(methyl)carbamate] | 80 to 100% | 80 to 100% |  | 
CC(=O)CCC(=O)N(C)c1cn(-c2cccnc2)nc1C [FA69, N-methyl-N-(3-methyl-1-(pyridin-3-yl)-1H-pyrazol-4-yl)-4-oxopentanamide] | 0 to 80% | 80 to 100% |  | 
CN(C(=O)CCC(=O)N1CCCCC1)c1cn(-c2cccnc2)nc1Cl [Compound F33, N-(3-Chloro-1-(pyridin-3-yl)-1H-pyrazol-4-yl)-N-methyl-4-oxo-4-(piperidin-1-yl)butanamide] | 0 to 80% | 80 to 100% |  | 
CC(C)(C)[Si](C)(C)N1CC(CCCC(=O)O)C1=O (centres unmarked) [Compound C5, 4-(1-(tert-Butyldimethylsilyl)-2-oxoazetidin-3-yl)butanoic acid] |  |  | 0 to 80% | < 0%
CCN(C(=O)C1CCCN(C(C)=O)C1)c1cn(-c2cccnc2)nc1Cl (centres unmarked) [FA45, 1-Acetyl-N-(3-chloro-1-(pyridin-3-yl)-1H-pyrazol-4-yl)-N-ethylpiperidine-3-carboxamide] | 80 to 100% | 0 to 80% |  | 
CCN(C(=O)CCNC(=O)C1CC1(F)F)c1cn(-c2cccnc2)nc1Cl (centres unmarked) [Compound F56, N-(3-((3-Chloro-1-(pyridin-3-yl)-1H-pyrazol-4-yl)(ethyl)amino)-3-oxopropyl)-2,2-difluorocyclopropanecarboxamide] | 80 to 100% | 80 to 100% |  | 
CCN(C(=O)CCNC)c1cn(-c2cccnc2)nc1Cl [Compound C11, N-(3-chloro-1-(pyridin-3-yl)-1H-pyrazol-4-yl)-N-ethyl-3-(methylamino)propanamide] | 0 to 80% | 80 to 100% |  | 
CCN(C(=O)CNC(=O)/C=C/C(F)(F)F)c1cn(-c2cccnc2)nc1Cl [Compound F99, (E)-N-(2-((3-Chloro-1-(pyridin-3-yl)-1H-pyrazol-4-yl)(ethyl)amino)-2-oxoethyl)-4,4,4-trifluorobut-2-enamide] | 0 to 80% | 80 to 100% |  | 
CN(C(=O)Cn1ccccc1=O)c1cn(-c2cccnc2)nc1Cl [Compound F3, N-(3-Chloro-1-(pyridin-3-yl)-1H-pyrazol-4-yl)-N-methyl-2-(2-oxopyridin-1(2H)-yl)acetamide] | 80 to 100% | 80 to 100% |  | 
CCN(C(=O)CC/C(C)=N/OCC1CC1(F)F)c1cn(-c2cccnc2)nc1Cl (mixture of isomers) [Compound F72, (E/Z)-N-(3-chloro-1-(pyridin-3-yl)-1H-pyrazol-4-yl)-4-(((2,2-difluorocyclopropyl)methoxy)imino)-N-ethylpentanamide] | 80 to 100% | 80 to 100% |  | 
C#CCN(C(=O)CN(C)C(=O)OC(C)(C)C)c1cn(-c2cccnc2)nc1Cl [Compound F23, tert-Butyl (2-((3-chloro-1-(pyridin-3-yl)-1H-pyrazol-4-yl)(prop-2-yn-1-yl)amino)-2-oxoethyl)(methyl) carbamate] |  |  | 0 to 80% | 80 to 100%
